Measured values from patent publication US20260256751A1, “COMBINATION OF BETA-2-ADRENERGIC RECEPTOR AGONISTS AND GLP-1 RECEPTOR AGONISTS FOR USE IN TREATING HYPERGLYCAEMIA” (ATROGI AB, priority 2023, published 2026).

Experiments:
[1] = test system: differentiated L6-myotubes; assay: Glucose uptake screen (Biological example 1 of WO 2019/053427); assay type: cell-based; details: compound at 10 μM, activity relative to isoproterenol at 10 μM, read-out: Biological example 1 of WO 2019/053427 (GU)
Method: (§1) Compounds described in publications referenced and incorporated herein were screened in accordance with the procedures outlined in Biological example 1 and Biological example 2 of WO 2019/053427.
L6-myoblasts were grown in Dulbecco's Modified Eagle's Medium (DMEM) containing 1 g/L glucose supplemented with 10% fetal bovine serum (FBS), 2 mM L-glutamine, 50 U/mL penicillin, […] streptomycin and 10 mM HEPES. Cells were plated at 1x 10^5 cells per mL in 24-well plates. After reaching 90% confluence the cells were grown in medium containing 2% FBS for 7 days where upon cells differentiated into myotubes. The differentiated L6-myotubes were serum-starved overnight in medium containing 0.5% fatty-acid free BSA and stimulated with Compound A at a final concentration of 1×10^−5 M in the presence of the selective β2-adrenergic receptor antagonist ICI-118551. After 1 h 40 min the cells were washed with warm, glucose free medium twice and another portion of agonist was added to the glucose free medium. After another 20 min of incubation the cells were exposed to 50 nM ^3H-2-deoxyglucose for 10 min before washed in ice cold glucose free medium three times and lysed in 400 µl/well 0.2 M NaOH for 1 h at 60° C. The cell lysate was mixed with 4 ml scintillation buffer (Emulsifier Safe, Perkin Elmer) and the radioactivity was detected in a P-counter (Tri-Carb 4810TR, Perkin Elmer).

[2] = test system: differentiated L6-myotubes; assay: cAMP production relative to isoprenaline (Biological example 2 of WO 2019/053427); assay type: cell-based; details: 0.25 h, compound at 10 μM, activity relative to isoproterenol at 10 μM
Description: For example, the level of cAMP production induced by a given compound can be determined by reference to the amount induced by a defined concentration of that compound relative to that induced by the same concentration of a reference compound, such as isoprenaline, using techniques known to those skilled in the art (e.g. following the protocol as described in the biological examples provided in WO 2019/053427, i.e. in cells, such as differentiated L6-myotubes, having been stimulated with isoprenaline or the compound with a final concentration of 1×10^−5 M, for 15 min in stimulation buffer, such as HBSS supplemented with 1% BSA, 5 mM HEPES and 1 mM IBMX, at pH 7.4).
as §1

Compound | Emax at 10 µM [1] | Emax at 10 µM [2]
CCC[C@H]1CCC[C@@H]([C@@H](O)c2cccc(F)c2)N1 [Compound 119, (S)-[(2S,6S)-6-propyl-2-piperidyl](m-fluorophenyl)methanol] | 25 to 50% | < 25%
CC(C)(C[C@H]1CC[C@@H](NS(=O)(=O)C2CC2)CC1)NC[C@H](O)c1cccc(F)c1 [Compound 494, (R)-2-{1,1-dimethyl-2-[(1s,4S)-4-(cyclopropylsuflonylamino)cyclohexyl]ethylamino}-1-(m-fluorophenyl)-1-ethanol] | 25 to 50% | < 25%
CC(C)(NC[C@H](O)c1cncc(F)c1)[C@H]1CC[C@H](NS(C)(=O)=O)CC1 [Compound 345, (R)-1-(5-fluoro-3-pyridyl)-2-{1-methyl-1-[(1r,4R)-4-(mesylamino)cyclohexyl]ethylamino}-1-ethanol] | 25 to 50% | < 25%
CCC[C@H]1CC[C@@H]([C@@H](O)c2cccc(F)c2)N1 [Compound 131, (S)-[(2S,5S)-5-propyl-2-pyrrolidinyl](m-fluorophenyl)methanol] | 50 to 75% | < 25%
CCCCNC[C@H](O)c1cccc(N)c1F [Compound 90, (R)-1-(3-amino-2-fluorophenyl)-2-(butylamino)-1-ethanol] | 50 to 75% | < 25%
CCCC(C)NCC(O)c1ccc(Cl)c(O)c1 (stereo not shown) [Compound 35, 1-(4-chloro-3-hydroxyphenyl)-2-(1-methylbutylamino)-1-ethanol] | > 75% | < 25%
CC(C)(C[C@H]1CC[C@@H](NS(C)(=O)=O)CC1)NC[C@H](O)c1cncc(F)c1 [Compound 468, (R)-2-{1,1-dimethyl-2-[(1s,4S)-4-(mesylamino)cyclohexyl]ethylamino}-1-(5-fluoro-3-pyridyl)-1-ethanol] | > 75% | < 25%
CC(C)(C[C@H]1CC[C@H](NC(=O)c2ccccc2)CC1)NC[C@H](O)c1cccc(F)c1 [Compound 384, N-[(1R,4r)-4-{2-[(R)-2-(m-fluorophenyl)-2-hydroxyethylamino]-2-methylpropyl}cyclohexyl]benzamide] | > 75% | > 75%
CC(=O)N[C@H]1CC[C@H](CC(C)(C)NC[C@H](O)c2cccc(C#N)n2)CC1 [Compound 425, N-[(1S,4r)-4-{2-[(S)-2-(6-cyano-2-pyridyl)-2-hydroxyethylamino]-2-methylpropyl}cyclohexyl]acetamide] | > 75% | 25 to 50%
O[C@H](c1cccc(F)c1)C12CCC(Cc3ccc(F)cc3)(CC1)N2 [Compound 413, (R)-(m-florophenyl){4-[(p-fluorophenyl)methyl]-7-azabicyclo[2.2.1]hept-1-yl}methanol] | > 75% | < 25%
CC(C)(C)NC[C@H](O)c1cccc(F)c1 [Compound 54, (R)-2-(tert-butylamino)-1-(m-fluorophenyl)-1-ethanol] | > 75% | < 25%
CC1(C)C[C@@H]([C@@H](O)c2cccc(F)c2)N1 [Compound 199, (S)-[(S)-4,4-dimethyl-2-azetidinyl](m-fluorophenyl)methanol] | 25 to 50% | < 25%
CO[C@H]1CC[C@H](CCCNC[C@H](O)c2cccc(F)c2)CC1 [Compound 259, (R)-1-(m-fluorophenyl)-2-{3-[(1r,4S)-4-methoxycyclohexyl]propyl-amino}-1-ethanol] | 25 to 50% | < 25%
O[C@@H](CNCC[C@H]1CC[C@@H](O)CC1)c1cncc(F)c1 [Compound 293, (R)-1-(5-fluoro-3-pyridyl)-2-{2-[(1s,4S)-4-hydroxycyclohexyl]ethylamino}-1-ethanol] | 25 to 50% | < 25%
CO[C@H]1CC[C@H](CCC23CCC([C@@H](O)c4cccc(F)c4)(CC2)N3)CC1 [Compound 410, (S)-(m-fluorophenyl)(4-{2-[(1r,4R)-4-methoxycyclohexyl]ethyl}-7-azabicyclo[2.2.1]hept-1-yl)methanol] | 50 to 75% | < 25%
CC(C)(CC[C@H]1CC[C@H](NS(C)(=O)=O)CC1)NC[C@H](O)c1cncc(F)c1 [Compound 362, (R)-2-{1,1-dimethyl-3-[(1r,4R)-4-(mesylamino)cyclohexyl]propylamino}-1-(5-fluoro-3-pyridyl)-1-ethanol] | 50 to 75% | < 25%

Compound | Emax at 10 µM [1] | Emax at 10 µM [2]
CCC[C@H]1CCC[C@@H]([C@H](O)c2cccc(Cl)c2)N1 [Compound 123, (R)-[(2S,6S)-6-propyl-2-piperidyl](m-chlorophenyl)methanol] | 25 to 50% | < 25%
CC(=O)N(C)[C@H]1CC[C@H](CC(C)(C)NC[C@H](O)c2cccc(F)c2)CC1 [Compound 491, N-[(1R,4r)-4-{2-[(R)-2-(m-fluorophenyl)-2-hydroxyethylamino]-2-methylpropyl}cyclohexyl]-N-methylacetamide] | > 75% | < 25%
O[C@@H](c1cncc(F)c1)C12CCC(C/C=C/c3ccccc3)(CC1)N2 [Compound 529, (S)-{4-[(E)-3-phenyl-2-propenyl]-7-azabicyclo[2.2.1]hept-1-yl}(5-fluoro-3-pyridyl)methanol] | 25 to 50% | < 25%
CCCCNCC(O)c1ccc(F)c(NC(C)=O)c1F (stereo not shown) [Compound 42, N-{3-[2-(butylamino)-1-hydroxyethyl]-2,6-difluorophenyl}acetamide] | 25 to 50% | < 25%
CCCCNC[C@H](O)c1ccc(F)c(O)c1 [Compound 85, (R)-2-(butylamino)-1-(4-fluoro-3-hydroxyphenyl)-1-ethanol] | > 75% | < 25%
O[C@@H](c1ccccc1F)C12CCC(CCc3cccnc3)(CC1)N2 [Compound 547, (S)-(o-fluorophenyl){4-[2-(3-pyridyl)ethyl]-7-azabicyclo[2.2.1]hept-1-yl}methanol] | > 75% | < 25%
COc1ccc(CCC23CCC([C@@H](O)c4cncc(F)c4)(CC2)N3)cc1 [Compound 541, (S)-(5-fluoro-3-pyridyl){4-[2-(p-methoxyphenyl)ethyl]-7-azabicyclo[2.2.1]hept-1-yl}methanol] | < 25% | < 25%
CC(C)(C[C@H]1CC[C@H](NC(=O)OC(C)(C)C)CC1)NC[C@H](O)c1cccc(F)c1 [Compound 420] | 50 to 75% | 25 to 50%
CO[C@H]1CC[C@H](C[C@H]2CC[C@H]([C@H](O)c3cncc(F)c3)N2)CC1 [Compound 341, (R)-[(2R,5R)-5-{[(1r,4R)-4-methoxycyclohexyl]methyl}-2-pyrrolidinyl](5-fluoro-3-pyridyl)methanol] | > 75% | < 25%
CCC[C@@H]1CC[C@H]([C@H](O)c2cccc(O)c2)N1 [Compound 57, m-{(R)-[(2R,5R)-5-propyl-2-pyrrolidinyl]hydroxymeth-yl}phenol] | > 75% | 50 to 75%
Cc1ncccc1[C@@H](O)CNC(C)(C)C[C@H]1CC[C@@H](NS(C)(=O)=O)CC1 [Compound 437, (R)-2-{1,1-dimethyl-2-[(1s,4S)-4-(mesylamino)cyclohexyl]ethylamino}-1-(2-methyl-3-pyridyl)-1-ethanol] | 25 to 50% | < 25%
CC(C)(C)NC[C@H](O)c1cccc(O)c1F [Compound 86, (R)-2-(tert-butylamino)-1-(2-fluoro-3-hydroxyphenyl)-1-ethanol] | 50 to 75% | 50 to 75%
CC12CC(C1)[C@@H]([C@@H](O)c1cccc(N)c1F)N2 [Compound 242, (S)-{(S)-1-methyl-2-azabicyclo[2.1.1]hex-3-yl}(3-amino-2-fluorophenyl)methanol] | 50 to 75% | < 25%
C[C@H]1CC[C@@H]([C@H](O)c2cccc(O)c2)N1 (racemic) [Compound 40, Racemic mixture of m-{(R)-[(2S,5S)-5-methyl-2-pyrrolidinyl]hydroxymeth-yl}phenol and m-{(S)-[(2R,5R)-5-methyl-2-pyrrolidinyl]hydroxymeth-yl}phenol] | 50 to 75% | < 25%
COCC12CCC([C@H](O)c3cccc(F)c3)(CC1)N2 [Compound 330, (R)-(m-fluorophenyl){4-(methoxymethyl)-7-azabicyclo[2.2.1]hept-1-yl}methanol] | > 75% | < 25%
CCC[C@@H](C)NC[C@H](O)c1ccc(F)cc1 [Compound 52, (R)-2-[(R)-1-methylbutylamino]-1-(p-fluorophenyl)-1-ethanol] | 50 to 75% | < 25%
